Results from US20100124782A1, “Composition For Repairing Defect In Skin Or Gingival Soft Tissue And Method Of Culturing Autologous Fibroblasts” (Applied Cell Biotechnologies, Inc., priority 2007, published 2010).

Tested on: fibroblasts separated from skin tissue
Test: Collagen concentration in fibroblast culture supernatant (human collagen ELISA quantitative kit)
Type: cell-based
Details: vitamin C (0.01-1 mM) added to the culture medium of skin fibroblasts; unit not given
Protocol: Culture of the fibroblasts separated from skin tissue was carried out according to a well-known method (R. I. Freshney, Culture of Animal Cells: A MANUAL OF BASIC TECHNIQUE (Wiley-Liss, Inc. 2000)). Specifically, the fibroblasts separated from skin tissue were being subcultured, subsequently followed by expansion culture, to be end up to a few T-225 flasks in the end. Vitamin C in the range of 0.01-1 mM was added to the culture medium three days before the end of culture (scheduled day of injection). Furthermore, the culture medium was replaced with a 2-5% self-serum addition culture medium with no vitamin C added. The cultured fibroblasts were exfoliated from a culture vessel with a dispersion liquid with no EDTA solution or enzyme, and the cells were separated from the dispersion liquid by centrifugation. Then, washing in a physiological salt solution were performed more than three times. The collagen concentration contained in the culture supernatant of the fibroblasts cultured in the culture medium with vitamin C added of Example 1 and the culture supernatant with no vitamin C added by the human collagen ELISA quantitative kit (AC Biotechnologies).

In the case of `O=C1O[C@H]([C@@H](O)CO)C(O)=C1O` [vitamin C], the “collagen concentration contained in the culture supernatant” value is reported as 11.3.
